Measurements reported in patent US20240158446A1, “CYCLIC COMPOUND HAVING SELECTIVE INHIBITORY ACTION ON KRAS OVER HRAS AND NRAS” (CHUGAI SEIYAKU KABUSHIKI KAISHA, priority 2021, published 2024).
Where a SMILES comes first, the peptide text is derived from it. Bridges are numbered along the chain shown (N, C = ends). [ ]: non-standard residue; d: D form. hPhe(3-Cl-4-CF3) = N[C@@H](CCc1ccc(C(F)(F)F)c(Cl)c1)C(=O)O; NPrPhe(4-CF3) = CCCN[C@@H](Cc1ccc(C(F)(F)F)cc1)C(=O)O; NMeGly(cPent) = CN[C@H](C(=O)O)C1CCCC1; Pro(4,4-F2) = O=C(O)[C@@H]1CC(F)(F)CN1; Hyp = O=C(O)[C@@H]1C[C@@H](O)CN1; NMeD = CN[C@@H](CC(=O)O)C(=O)O; NMeL = CN[C@@H](CC(C)C)C(=O)O; Ac5c = NC1(C(=O)O)CCCC1; Ac4c = NC1(C(=O)O)CCC1; Sar = CNCC(=O)O

Tests used:
[1] = biological target: GDP-bound NRAS wild-type protein (Homo sapiens, UniProt P01111); test: Binding to NRAS by surface plasmon resonance (SPR), Single Cycle Kinetics; conditions: SPR, GDP-bound NRAS wild-type protein vs GDP-bound KRAS wild-type protein
[2] = biological target: GDP-bound KRAS wild-type protein (Homo sapiens, UniProt P01116); test: Binding to KRAS by surface plasmon resonance (SPR), Single Cycle Kinetics; conditions: SPR Single Cycle Kinetics, GDP-bound KRAS wild-type protein, 1:1 binding model; read-out: KRAS KD
[3] = biological target: GDP-bound HRAS wild-type protein (Homo sapiens, UniProt P01112); test: Binding to HRAS by surface plasmon resonance (SPR), Single Cycle Kinetics; conditions: SPR, GDP-bound HRAS wild-type protein vs GDP-bound KRAS wild-type protein
GDP-bound HRAS wild-type protein, sequence (P01112 whole entry): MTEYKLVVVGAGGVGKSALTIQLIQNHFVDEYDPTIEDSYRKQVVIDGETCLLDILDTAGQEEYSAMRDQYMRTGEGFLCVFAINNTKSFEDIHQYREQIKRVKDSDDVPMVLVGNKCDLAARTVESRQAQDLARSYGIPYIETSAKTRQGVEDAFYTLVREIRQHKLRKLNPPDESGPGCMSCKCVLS

GDP-bound NRAS wild-type protein, sequence (P01111 whole entry): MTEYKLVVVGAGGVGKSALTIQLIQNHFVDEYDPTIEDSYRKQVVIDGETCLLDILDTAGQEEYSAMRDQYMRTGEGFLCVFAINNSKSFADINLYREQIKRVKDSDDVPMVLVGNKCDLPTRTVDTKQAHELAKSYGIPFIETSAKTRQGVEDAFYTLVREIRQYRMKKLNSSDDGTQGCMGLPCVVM
GDP-bound KRAS wild-type protein, sequence (P01116 whole entry): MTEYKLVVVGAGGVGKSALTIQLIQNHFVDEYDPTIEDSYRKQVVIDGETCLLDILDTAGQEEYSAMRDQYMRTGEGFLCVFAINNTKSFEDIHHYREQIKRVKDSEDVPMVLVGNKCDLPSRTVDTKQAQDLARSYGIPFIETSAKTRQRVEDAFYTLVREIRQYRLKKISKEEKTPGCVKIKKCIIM

## CCCN1C(=O)CN(C)C(=O)CN(C)C(=O)[C@H]([C@@H](C)CC)NC(=O)[C@H](CC(C)C)N(C)C(=O)C[C@@H](C(=O)N(C)C)N(C)C(=O)[C@H](C2CCCC2)N(C)C(=O)C2(CCCC2)NC(=O)[C@@H]2CC(F)(F)CN2C(=O)[C@H](CCc2ccc(C(F)(F)F)c(Cl)c2)NC(=O)CN(C)C(=O)[C@@H]1Cc1ccc(C(F)(F)F)cc1 [PP0413] ([NMeL]I[Sar][Sar][NPrPhe(4-CF3)][Sar][hPhe(3-Cl-4-CF3)][Pro(4,4-F2)][Ac5c][NMeGly(cPent)][NMeD]-NMe2; lactam N-11)
[1]
  NRAS/KRAS (ratio of KD value with respect to NRAS to KD value with respect to KRAS): C (A compound having a KD ratio of 0.1 or more and less than 3 is denoted as C)
[2]
  Kd: 49 pM
[3]
  HRAS/KRAS (ratio of KD value with respect to HRAS to KD value with respect to KRAS): C (A compound having a KD ratio of 0.1 or more and less than 3 is denoted as C)

## CCCN1C(=O)CN(C)C(=O)CN(C)C(=O)[C@H]([C@@H](C)CC)NC(=O)[C@H](CC(C)C)N(C)C(=O)C[C@@H](C(=O)N(C)C)N(C)C(=O)[C@H](C2CCCC2)N(C)C(=O)C2(CCC2)NC(=O)[C@@H]2CC(F)(F)CN2C(=O)[C@H](CCc2ccc(C(F)(F)F)c(Cl)c2)NC(=O)CN(C)C(=O)[C@@H]1Cc1ccc(C(F)(F)F)cc1 [PP0414] ([NMeL]I[Sar][Sar][NPrPhe(4-CF3)][Sar][hPhe(3-Cl-4-CF3)][Pro(4,4-F2)][Ac4c][NMeGly(cPent)][NMeD]-NMe2; lactam N-11)
[1]
  NRAS/KRAS (ratio of KD value with respect to NRAS to KD value with respect to KRAS): B (a compound having 3 or more and less than 10 is denoted as B)
[2]
  Kd: 29 pM
[3]
  HRAS/KRAS (ratio of KD value with respect to HRAS to KD value with respect to KRAS): C (A compound having a KD ratio of 0.1 or more and less than 3 is denoted as C)

## CCCN1C(=O)CN(C)C(=O)CN(C)C(=O)[C@H]([C@@H](C)CC)NC(=O)[C@H](CC(C)C)N(C)C(=O)C[C@@H](C(=O)N(C)C)N(C)C(=O)[C@H](C2CCCC2)N(C)C(=O)C2(CCCC2)NC(=O)[C@@H]2C[C@@H](OCC)CN2C(=O)[C@H](CCc2ccc(C(F)(F)F)c(Cl)c2)NC(=O)CN(C)C(=O)[C@@H]1Cc1ccc(C(F)(F)F)cc1 [PP0415] ([NMeL]I[Sar][Sar][NPrPhe(4-CF3)][Sar][hPhe(3-Cl-4-CF3)][Hyp](Et)[Ac5c][NMeGly(cPent)][NMeD]-NMe2; lactam N-11)
[1]
  NRAS/KRAS (ratio of KD value with respect to NRAS to KD value with respect to KRAS): B (a compound having 3 or more and less than 10 is denoted as B)
[2]
  Kd: 18 pM
[3]
  HRAS/KRAS (ratio of KD value with respect to HRAS to KD value with respect to KRAS): B (a compound having 3 or more and less than 10 is denoted as B)

## CCCN1C(=O)CN(C)C(=O)CN(C)C(=O)[C@H]([C@@H](C)CC)NC(=O)[C@H](CC(C)C)N(C)C(=O)C[C@@H](C(=O)N(C)C)N(C)C(=O)[C@H](C2CCCC2)N(C)C(=O)C2(CCC2)NC(=O)[C@@H]2C[C@@H](OCC)CN2C(=O)[C@H](CCc2ccc(C(F)(F)F)c(Cl)c2)NC(=O)CN(C)C(=O)[C@@H]1Cc1ccc(C(F)(F)F)cc1 [PP0416] ([NMeL]I[Sar][Sar][NPrPhe(4-CF3)][Sar][hPhe(3-Cl-4-CF3)][Hyp](Et)[Ac4c][NMeGly(cPent)][NMeD]-NMe2; lactam N-11)
[1]
  NRAS/KRAS (ratio of KD value with respect to NRAS to KD value with respect to KRAS): B (a compound having 3 or more and less than 10 is denoted as B)
[2]
  Kd: 27 pM
[3]
  HRAS/KRAS (ratio of KD value with respect to HRAS to KD value with respect to KRAS): C (A compound having a KD ratio of 0.1 or more and less than 3 is denoted as C)

## CCCN1C(=O)CN(C)C(=O)CNC(=O)[C@H]([C@@H](C)CC)NC(=O)[C@H](CC(C)C)N(C)C(=O)C[C@@H](C(=O)N(C)C)N(C)C(=O)[C@H](C2CCCC2)N(C)C(=O)C2(CCCC2)NC(=O)[C@@H]2CCCN2C(=O)[C@H](CCc2ccc(C(F)(F)F)c(Cl)c2)NC(=O)CN(C)C(=O)[C@@H]1Cc1ccc(C(F)(F)F)cc1 [PP0417] ([NMeL]IG[Sar][NPrPhe(4-CF3)][Sar][hPhe(3-Cl-4-CF3)]P[Ac5c][NMeGly(cPent)][NMeD]-NMe2; lactam N-11)
[1]
  NRAS/KRAS (ratio of KD value with respect to NRAS to KD value with respect to KRAS): B (a compound having 3 or more and less than 10 is denoted as B)
[2]
  Kd: 74 pM
[3]
  HRAS/KRAS (ratio of KD value with respect to HRAS to KD value with respect to KRAS): C (A compound having a KD ratio of 0.1 or more and less than 3 is denoted as C)

## CCCN1C(=O)CN(C)C(=O)CNC(=O)[C@H]([C@@H](C)CC)NC(=O)[C@H](CC(C)C)N(C)C(=O)C[C@@H](C(=O)N(C)C)N(C)C(=O)[C@H](C2CCCC2)N(C)C(=O)C2(CCC2)NC(=O)[C@@H]2CCCN2C(=O)[C@H](CCc2ccc(C(F)(F)F)c(Cl)c2)NC(=O)CN(C)C(=O)[C@@H]1Cc1ccc(C(F)(F)F)cc1 [PP0418] ([NMeL]IG[Sar][NPrPhe(4-CF3)][Sar][hPhe(3-Cl-4-CF3)]P[Ac4c][NMeGly(cPent)][NMeD]-NMe2; lactam N-11)
[1]
  NRAS/KRAS (ratio of KD value with respect to NRAS to KD value with respect to KRAS): B (a compound having 3 or more and less than 10 is denoted as B)
[2]
  Kd: 74 pM
[3]
  HRAS/KRAS (ratio of KD value with respect to HRAS to KD value with respect to KRAS): C (A compound having a KD ratio of 0.1 or more and less than 3 is denoted as C)
